Where a SMILES comes first, the peptide text is derived from it. Bridges are numbered along the chain shown (N, C = ends). [ ]: non-standard residue; d: D form. d(aThr) = C[C@@H](O)[C@@H](N)C(=O)O

The target of one assay is Somatostatin receptor type 2 (Mus musculus, UniProt P30875). The assay can be described thus: Compound was tested for the inhibition of mSSTR2b.
Sequence of Somatostatin receptor type 2 (P30875 whole entry): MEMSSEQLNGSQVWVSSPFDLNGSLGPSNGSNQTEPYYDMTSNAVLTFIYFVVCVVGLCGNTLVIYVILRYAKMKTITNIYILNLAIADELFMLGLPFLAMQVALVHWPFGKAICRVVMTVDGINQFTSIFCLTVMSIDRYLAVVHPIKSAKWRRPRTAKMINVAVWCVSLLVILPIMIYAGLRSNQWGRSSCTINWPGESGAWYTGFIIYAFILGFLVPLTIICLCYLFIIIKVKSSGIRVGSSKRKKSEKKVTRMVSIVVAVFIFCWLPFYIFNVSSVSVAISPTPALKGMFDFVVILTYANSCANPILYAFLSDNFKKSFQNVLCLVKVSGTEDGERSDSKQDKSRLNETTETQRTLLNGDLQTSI
The IC50 is the concentration at which inhibition is half-maximal. In turn, `C[C@@H](O)[C@H](NC(=O)[C@@H]1CSSC[C@H](NC(=O)[C@H](N)Cc2ccccc2)C(=O)N[C@@H](Cc2ccccc2)C(=O)N[C@H](Cc2c[nH]c3ccccc23)C(=O)N[C@@H](CCCCN)C(=O)N[C@@H]([C@@H](C)O)C(=O)N1)C(=O)O` showed an IC50 of 0.28 nM.

`C[C@@H](O)[C@H](NC(=O)[C@@H]1CSC[C@H](NC(=O)[C@H](N)Cc2ccccc2)C(=O)N[C@@H](Cc2ccccc2)C(=O)N[C@H](Cc2c[nH]c3ccccc23)C(=O)N[C@@H](CCCCN)C(=O)N[C@@H]([C@@H](C)O)C(=O)N1)C(N)=O`: the IC50 amounted to 15.6 nM.

Another assay addresses T1, Somatostatin receptor type 5 (Rattus norvegicus, UniProt P30938).
T1 sequence (P30938 whole entry): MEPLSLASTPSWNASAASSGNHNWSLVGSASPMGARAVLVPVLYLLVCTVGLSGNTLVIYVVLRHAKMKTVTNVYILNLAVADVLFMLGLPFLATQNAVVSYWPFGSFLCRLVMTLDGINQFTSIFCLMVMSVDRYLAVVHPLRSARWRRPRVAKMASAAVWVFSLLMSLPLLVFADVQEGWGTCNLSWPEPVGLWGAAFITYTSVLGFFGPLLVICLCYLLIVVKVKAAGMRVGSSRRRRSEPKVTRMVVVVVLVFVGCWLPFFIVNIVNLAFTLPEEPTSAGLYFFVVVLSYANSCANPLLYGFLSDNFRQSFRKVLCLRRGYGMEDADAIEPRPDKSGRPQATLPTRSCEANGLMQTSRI
Put plainly: Compound was tested for the inhibition of rSSTR5.
`C[C@@H](O)[C@@H](NC(=O)[C@H]1CSSC[C@H](NC(=O)[C@@H](N)Cc2ccccc2)C(=O)N[C@@H](Cc2ccccc2)C(=O)N[C@H](Cc2c[nH]c3ccccc23)C(=O)N[C@@H](CCCCN)C(=O)N[C@H]([C@@H](C)O)C(=O)N1)C(=O)O` yielded an IC50 of 1.04 nM.

`C[C@@H](O)[C@H](NC(=O)[C@@H]1CSC[C@@H](NC(=O)[C@H](N)Cc2ccccc2)C(=O)N[C@H](Cc2ccccc2)C(=O)N[C@@H](Cc2c[nH]c3ccccc23)C(=O)N[C@H](CCCCN)C(=O)N[C@@H]([C@@H](C)O)C(=O)N1)C(N)=O` registered an IC50 of 5.5 nM.

`C[C@@H](O)[C@@H]1NC(=O)[C@@H](CCCCN)NC(=O)[C@H](Cc2c[nH]c3ccccc23)NC(=O)[C@@H](Cc2ccccc2)NC(=O)[C@H](NC(=O)[C@H](N)Cc2ccccc2)CSC[C@@H](C(=O)O)NC1=O` had an IC50 of 500 nM.

`C[C@@H](O)[C@H]1NC(=O)[C@H](CCCCN)NC(=O)[C@@H](Cc2c[nH]c3ccccc23)NC(=O)[C@H](Cc2ccccc2)NC(=O)[C@@H](NC(=O)[C@@H](N)Cc2ccccc2)CSSC[C@H](C(=O)O)NC1=O` (H-FCF[dW]K[d(aThr)][dC]-OH; disulfide 2-7) came in with an IC50 of 10.6 nM.

The values above are taken from ChEMBL document CHEMBL1130422, “A refined model for the somatostatin pharmacophore: conformational analysis of lanthionine-sandostatin analogs” (J Med Chem, 1997).
